From patent US9255094B2, “Pyrido[4,3-B]indoles and methods of use” (Medivation Technologies, Inc., priority 2009, dated 2016)

Legend:
[1] = molecular target: T1, human recombinant serotonin (5-Hydroxytryptamine) 5-HT2C receptor (Homo sapiens, UniProt P28335); experiment: Serotonin 5-HT2C radioligand binding assay ([3H]Mesulergine); conditions: compound at 1 μM; 1 nM [3H]Mesulergine; CHO-K1 cells; read-out: Percent Inhibition of ligand binding, Serotonin (1 μM) 5-HT2C
T1 construct: expressed in transfected cells; host or cells: Chinese hamster ovary (CHO-K1) cells
T1 sequence (P28335 33-458): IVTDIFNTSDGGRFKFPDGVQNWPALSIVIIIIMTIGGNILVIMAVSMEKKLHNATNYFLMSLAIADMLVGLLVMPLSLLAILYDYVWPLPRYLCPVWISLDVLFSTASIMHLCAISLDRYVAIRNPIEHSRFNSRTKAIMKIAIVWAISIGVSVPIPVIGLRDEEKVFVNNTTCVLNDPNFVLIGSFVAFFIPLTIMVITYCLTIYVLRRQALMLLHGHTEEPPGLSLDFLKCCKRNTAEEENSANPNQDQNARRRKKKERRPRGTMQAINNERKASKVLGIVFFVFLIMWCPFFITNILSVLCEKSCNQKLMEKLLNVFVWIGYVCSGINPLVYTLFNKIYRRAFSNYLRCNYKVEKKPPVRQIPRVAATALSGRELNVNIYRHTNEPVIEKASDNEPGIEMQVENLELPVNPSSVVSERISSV
Experimental: Compounds of the invention were incubated with 1 nM [^3H]Mesulergine for 60 min at 25° C. Non-specific binding was estimated in the presence of 1 μM Mianserin. Receptor proteins were filtered and washed, the filters were then counted to determine [^3H]Mesulergine specifically bound. Compounds were screened at 1 μM or lower, using 1% DMSO as vehicle. Biochemical assay results are presented as the percent inhibition of specific binding in Table 4.

[2] = molecular target: human recombinant dopamine D2L receptor (Homo sapiens, UniProt P14416); experiment: Dopamine D2L radioligand binding assay ([3H]Spiperone); conditions: compound at 1 μM, 0.16 nM [3H]Spiperone, CHO cells, read-out: Percent Inhibition of ligand binding, Dopamine (1μM)
In short: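 Test compounds at 1 μM or lower (1% DMSO vehicle) incubated with 0.16 nM [3H]Spiperone for 120 min at 25 °C; nonspecific binding defined with 10 μM haloperidol. Filtration and counting of bound radioligand; values given as percent inhibition of specific binding.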

[3] = molecular target: T2, human recombinant histamine H2 receptor (Homo sapiens, UniProt P25021); experiment: Histamine H2 radioligand binding assay ([125I]Aminopotentidine); conditions: compound at 1 μM; 0.1 nM [125I]Aminopotentidine; receptor expressed in CHO-K1 cells
T2 construct: expressed in transfected cells; host or cells: Chinese hamster ovary (CHO) K1 cells
Experimental: To evaluate in radioligand binding assays the activity of compounds of the invention, human recombinant histamine H2 receptor expressed in Chinese hamster ovary (CHO) K1 cells (Ruat, M., Proc. Natl. Acad. Sci. USA. 87(5):1658, 1990) in a 50 mM Phosphate buffer, pH 7.4 was used. Compounds of the invention were incubated with 0.1 nM [^125I]Aminopotentidine for 120 min at 25° C. Non-specific binding was estimated in the presence of 3 μM Tiotidine. Receptor proteins were filtered and washed, the filters were then counted to determine [^125I]Aminopotentidine specifically bound. Compounds were screened at 1 μM or lower, using 1% DMSO as vehicle. Biochemical assay results are presented as the percent inhibition of specific binding in Table 2.

T2 sequence (P25021 whole entry): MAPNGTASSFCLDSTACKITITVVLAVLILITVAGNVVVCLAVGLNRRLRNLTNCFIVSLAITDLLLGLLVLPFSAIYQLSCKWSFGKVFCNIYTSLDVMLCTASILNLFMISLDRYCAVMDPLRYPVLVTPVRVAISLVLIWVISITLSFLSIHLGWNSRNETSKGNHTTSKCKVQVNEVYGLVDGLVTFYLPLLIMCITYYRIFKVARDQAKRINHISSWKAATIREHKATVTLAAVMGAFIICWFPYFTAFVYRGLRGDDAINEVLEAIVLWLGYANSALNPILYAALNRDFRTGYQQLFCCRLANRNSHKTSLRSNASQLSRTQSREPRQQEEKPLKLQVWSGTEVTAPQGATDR
Sequence of human recombinant dopamine D2L receptor (P14416 whole entry): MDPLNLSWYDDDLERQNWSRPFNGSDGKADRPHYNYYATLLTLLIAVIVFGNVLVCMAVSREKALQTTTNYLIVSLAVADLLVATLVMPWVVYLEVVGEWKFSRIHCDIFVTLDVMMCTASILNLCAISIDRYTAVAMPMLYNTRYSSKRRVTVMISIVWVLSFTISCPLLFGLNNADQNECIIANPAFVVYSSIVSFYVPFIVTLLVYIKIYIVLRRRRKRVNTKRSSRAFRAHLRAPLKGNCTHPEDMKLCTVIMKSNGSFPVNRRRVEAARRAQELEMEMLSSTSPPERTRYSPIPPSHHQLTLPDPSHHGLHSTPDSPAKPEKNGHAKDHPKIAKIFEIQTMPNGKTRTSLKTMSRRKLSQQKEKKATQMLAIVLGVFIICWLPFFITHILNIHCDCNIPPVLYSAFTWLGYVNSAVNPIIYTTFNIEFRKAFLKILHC

SMILES	inhibition at 1 µM [1]	inhibition at 1 µM [2]	inhibition at 1 µM [3]
CN1CCc2c(c3cc(Cl)ccc3n2CC(=O)c2ccc(Cl)cc2)C1 [Compound 1-38, 2-(8-chloro-2-methyl-3,4-dihydro-1H-pyrido[4,3-b]indol-5(2H)-yl)-1-(4-chlorophenyl)ethanone]	101%	44%	56%
Cc1ccc2c(c1)c1c(n2CCc2ccc(C)nc2)CCN(CCCO)C1 [Compound 1-42, 3-(8-methyl-5-(2-(6-methylpyridin-3-yl)ethyl)-3,4-dihydro-1H-pyrido[4,3-b]indole-2(5H)-yl)propan-1-ol]	90%	11%	16%
Cc1ccc2c(c1)c1c(n2CCc2ccc(C(F)(F)F)nc2)CCNC1 [Compound 1-41, 8-methyl-5-(2-(6-(trifluoromethyl)pyridin-3-yl)ethyl)-2,3,4,5-tetrahydro-1H-pyrido[4,3-b]indole]	41%	-8%	6%
